Source: BindingDB's records for doi:10.1021/jm00123a012 (Dainippon Pharmaceutical, 1989)

Biological target: Polyunsaturated fatty acid 5-lipoxygenase (Cavia porcellus)
Experiment: Inhibitory activity against 5-lipoxygenase in guinea pig leukocyte

Molecule `Cc1ccc(/C=C/C(=O)NCCCCN2CCN(C(c3ccccc3)c3ccccc3)CC2)cn1` [N-[4-(4-Benzhydryl-piperazin-1-yl)-butyl]-3-(6-methyl-pyridin-3-yl)-acrylamide] has an IC50 of 4.86 µM.
